Data set [1] concerns Mouse monocyte/macrophage cell line, RAW 264.7. Kind of data set: Cholesterol efflux assay (3H-cholesterol, macrophage cell line). Conditions: RAW 264.7, 4 hrs incubation, 0.1% human serum albumin; for 4 h Cholesterol Efflux Emax: ABCA1-mediated efflux. Format: cell-based.
For data set [2], the target named is human GLP-1 receptor (Homo sapiens, UniProt P43220). The experiment in a line: Functional GLP-1 receptor assay, in vitro potency (CRE luciferase; whole cells). The data set is classed as cell-based. As to conditions: BHK cells expressing human GLP-1 receptor.
Data set [3] in a line: Pharmacokinetics in mini-pigs after i.v. administration. As to conditions: female, Göttingen, minipig, iv, 5 nmol/kg; for half-life: T1/2 Mean Value. An excerpt: The aim of the study is to assess the pharmacokinetic properties of the compounds of the invention, in mini-pigs.
Göttingen mini-pigs female, 15-20 kg, purchased from Ellegaard Mini-pigs, Denmark, were housed in the Animal Unit, Novo Nordisk A/S and were kept and handled according to normal procedure in the Animal Unit. After minimum 2 weeks of acclimatization two permanent central venous catheters were implemented in vena cava caudalis in each animal. After surgery the animals were in their normal individual pens during the pharmacokinetic experiments.
Intravenous injections were given through the central short catheter, which was flushed with min 10 ml of sterile saline post administration. The test substance was dosed at 5 nmol/kg, N=3, in a volume of 0.05 ml/kg.
On day 1 the catheters are coupled to extension tubes, which will be removed at the end of day 1.
Samples were kept on wet ice until centrifugation (10 min, 4° C., 1942 g). Afterwards, plasma (min. 100 μl) was transferred immediately to Micronic tubes and kept at −20° C. until analysis. The plasma samples were analysed by an immunoaasay described below.
The plasma concentrations of the peptides with intact N-terminus were determined using a Luminescence Oxygen Chanelling Immuno-assay (LOCI). The donor beads were coated with streptavidin, while acceptor beads were conjugated with a monoclonal antibody recognizing a mid-/C-terminal epitope of the peptide. The other monoclonal antibody, specific for the N-terminus, was biotinylated. The three reactants were combined with the analyte and formed a two-sited immuno-complex. Illumination of the complex released singlet oxygen atoms from the donor beads, which were channeled into the acceptor beads and triggered chemi-luminescence which was measured in an Envision plate reader. The amount of light was proportional to the concentration of the compound.
Plasma concentration-time profiles was analysed by a non-compartmental pharmacokinetics analysis using Phoenix (Pharsight Inc., Mountain View, Calif., USA). Calculations were performed using individual concentration-time values from each animal.

Setting [4] is: GLP1R CRE luc 1% HSA EC50 Mean Value, 1% HSA.
Where [5] appears, read: 0% HSA, read-out: GLP1R CRE luc 0% HSA EC50 Mean Value.
The mark [6] stands for this setting: plasma, Göttingen mini-pigs, N=3.

Like-named read-outs stand apart in the source and are kept apart here. Where a SMILES comes first, the peptide text is derived from it. Where no end group is shown, it is not given here. [ ]: non-standard residue; d: D form. Aib = CC(C)(N)C(=O)O

Sequence of human GLP-1 receptor (P43220 24-463): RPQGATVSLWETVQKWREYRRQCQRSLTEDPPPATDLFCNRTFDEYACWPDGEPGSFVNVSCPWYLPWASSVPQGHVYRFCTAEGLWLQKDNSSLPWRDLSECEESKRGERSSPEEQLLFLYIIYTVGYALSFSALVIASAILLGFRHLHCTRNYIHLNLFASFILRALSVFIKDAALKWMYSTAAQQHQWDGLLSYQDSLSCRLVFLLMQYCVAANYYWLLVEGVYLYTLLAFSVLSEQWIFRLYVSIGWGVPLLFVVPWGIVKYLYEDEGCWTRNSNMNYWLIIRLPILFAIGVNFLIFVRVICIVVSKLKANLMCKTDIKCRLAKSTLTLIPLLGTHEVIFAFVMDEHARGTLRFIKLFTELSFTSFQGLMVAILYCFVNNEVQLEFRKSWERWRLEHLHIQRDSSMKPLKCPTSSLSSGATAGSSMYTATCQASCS

In the case of `CC[C@H](C)[C@H](NC(=O)[C@H](Cc1ccccc1)NC(=O)[C@H](CCC(=O)O)NC(=O)[C@H](CCCCN)NC(=O)[C@@H](NC(=O)[C@H](C)NC(=O)[C@H](CCC(=O)O)NC(=O)CNC(=O)[C@H](CCC(=O)O)NC(=O)[C@H](CC(C)C)NC(=O)[C@H](Cc1ccc(O)cc1)NC(=O)[C@H](CO)NC(=O)[C@H](CO)NC(=O)[C@@H](NC(=O)[C@H](CC(=O)O)NC(=O)[C@H](CO)NC(=O)[C@@H](NC(=O)[C@H](Cc1ccccc1)NC(=O)[C@@H](NC(=O)CNC(=O)[C@H](CCC(=O)O)NC(=O)C(C)(C)NC(=O)[C@@H](N)Cc1c[nH]cn1)[C@@H](C)O)[C@@H](C)O)C(C)C)C(C)C)C(=O)N[C@@H](C)C(=O)N[C@@H](Cc1c[nH]c2ccccc12)C(=O)N[C@@H](CC(C)C)C(=O)N[C@H](C(=O)N[C@@H](CCC(=O)O)C(=O)N[C@@H](CCCCN)C(=O)N[C@H](C(=O)N[C@@H](CCCCN)C(=O)N[C@@H](CCC(=O)O)C(=O)N[C@@H](Cc1ccccc1)C(=O)N[C@@H](Cc1ccccc1)C(N)=O)C(C)C)C(C)C` [Compound 121, [Aib8,Glu23,Val25,Glu34,Lys35,Val36,Lys37]-GLP-1-(7-37)-peptidyl-Glu-Phe-Phe amide] (H-H[Aib]EGTFTSDVSSYLEGEAVKEFIAWLVEKVKEFF-NH2), in data set [1], the “4 h Cholesterol Efflux Emax” value is reported as 109%. The EC50 in data set [2] (setting [4]) stood at 0.372 nM.
As for `CC[C@H](C)[C@H](NC(=O)[C@H](Cc1ccccc1)NC(=O)[C@H](CCC(=O)O)NC(=O)[C@H](CCCCN)NC(=O)[C@@H](NC(=O)[C@H](C)NC(=O)[C@H](CCC(=O)O)NC(=O)[C@H](CCC(=O)O)NC(=O)[C@H](CCC(=O)O)NC(=O)[C@H](CC(C)C)NC(=O)[C@H](Cc1ccc(O)cc1)NC(=O)[C@H](CO)NC(=O)[C@H](CO)NC(=O)[C@@H](NC(=O)[C@H](CC(=O)O)NC(=O)[C@H](CO)NC(=O)[C@@H](NC(=O)[C@H](Cc1ccccc1)NC(=O)[C@@H](NC(=O)CNC(=O)[C@H](CCC(=O)O)NC(=O)C(C)(C)NC(=O)[C@@H](N)Cc1c[nH]cn1)[C@@H](C)O)[C@@H](C)O)C(C)C)C(C)C)C(=O)N[C@@H](C)C(=O)N[C@@H](Cc1c[nH]c2ccccc12)C(=O)N[C@@H](CC(C)C)C(=O)N[C@H](C(=O)N[C@@H](CCC(=O)O)C(=O)N[C@@H](CCCCN)C(=O)N[C@H](C(=O)N[C@@H](CCCCN)C(=O)N[C@@H](CCC(=O)O)C(=O)N[C@@H](Cc1ccccc1)C(N)=O)C(C)C)C(C)C` [Compound 134, [Aib8,Glu22,Glu23,Val25,Glu34,Lys35,Val36,Lys37]-GLP-1-(7-37)-peptidyl-Glu-Phe amide] (H-H[Aib]EGTFTSDVSSYLEEEAVKEFIAWLVEKVKEF-NH2), the “4 h Cholesterol Efflux Emax” value in data set [1] was found to be 134%. The EC50 came out at 0.029 nM in data set [2] (setting [5]) and 0.012 nM in data set [2] (setting [4]).
As to `CC[C@H](C)[C@H](NC(=O)[C@H](Cc1ccccc1)NC(=O)[C@H](CCC(=O)O)NC(=O)[C@H](CCCCN)NC(=O)[C@@H](NC(=O)[C@H](C)NC(=O)[C@H](CCC(=O)O)NC(=O)[C@H](CCC(=O)O)NC(=O)[C@H](CCC(=O)O)NC(=O)[C@H](CC(C)C)NC(=O)[C@H](Cc1ccc(O)cc1)NC(=O)[C@H](CO)NC(=O)[C@H](CO)NC(=O)[C@@H](NC(=O)[C@H](CC(=O)O)NC(=O)[C@H](CO)NC(=O)[C@@H](NC(=O)[C@H](Cc1ccccc1)NC(=O)[C@@H](NC(=O)CNC(=O)[C@H](CCC(=O)O)NC(=O)C(C)(C)NC(=O)[C@@H](N)Cc1c[nH]cn1)[C@@H](C)O)[C@@H](C)O)C(C)C)C(C)C)C(=O)N[C@@H](C)C(=O)N[C@@H](Cc1c[nH]c2ccccc12)C(=O)N[C@@H](CC(C)C)C(=O)N[C@H](C(=O)N[C@@H](CCC(=O)O)C(=O)N[C@@H](CCCCN)C(=O)N[C@H](C(=O)N[C@@H](CCCCN)C(=O)N[C@@H](CCC(=O)O)C(=O)N[C@@H](Cc1ccccc1)C(=O)N[C@@H](CC(C)C)C(N)=O)C(C)C)C(C)C` [Compound 137, [Aib8,Glu22,Glu23,Val25,Glu34,Lys35,Val36,Lys37]-GLP-1-(7-37)-peptidyl-Glu-Phe-Leu amide] (H-H[Aib]EGTFTSDVSSYLEEEAVKEFIAWLVEKVKEFL-NH2), in data set [1], the “4 h Cholesterol Efflux Emax” value was found to be 108%. The EC50 in data set [2] (setting [5]) is 0.116 nM; in data set [2] (setting [4]), 0.034 nM.
As for “H-HAEGTFTSDVSSYLEGEAVKEFIAWLVEKVKEFLEK-OH [Compound 123, [Glu23,Val25,Glu34,Lys35,Val36,Lys37]-GLP-1-(7-37)-peptidyl-Glu-Phe-Leu-Glu-Lys]”, the “4 h Cholesterol Efflux Emax” value in data set [1] is 111%. Besides, a half-maximal effect in data set [2] (setting [4]) (EC50) was put at 0.031 nM.
For the compound “H-HAEGTFTSDVSSYLEGEAVREFIAWLVERVREFLEK-OH [Compound 138]”, the “4 h Cholesterol Efflux Emax” value in data set [1] was found to be 96%. Moreover, the results for the EC50 in data set [2] (setting [5]) and in data set [2] (setting [4]) were 0.041 nM and 0.017 nM, respectively.
Regarding “H-HAEGTFTSDVSSYLEGEAVREFIAWLVHRVREFLEK-OH [Compound 139]”, the “4 h Cholesterol Efflux Emax” value in data set [1] was 104%. The EC50 in data set [2] (setting [5]) was 0.039 nM; in data set [2] (setting [4]), 0.014 nM.
For “H-HAEGTFTSDVSSYLEGQAAKEFIAWLVEKVGEFLEK-OH [Compound 128]”, in that order: 112%, 0.041 nM and 0.013 nM.
On the same counts, the results for “H-HAEGTFTSDVSSYLEGQAAKEFIAWLVEKVKEFLDK-OH [Compound 129, [Glu34,Lys35,Val36,Lys37]-GLP-1-(7-37)-peptidyl-Glu-Phe-Leu-Asp-Lys]” are 111%, 0.045 nM and 0.012 nM.
On the same counts, the results for “H-HAEGTFTSDVSSYLEGQAAKEFIAWLVEKVKEFLEK-OH [Compound 124, [Glu34,Lys35,Val36,Lys37]-GLP-1-(7-37)-peptidyl-Glu-Phe-Leu-Glu-Lys]” are 146%, 0.03 nM and 0.011 nM.
Regarding “H-HAEGTFTSDVSSYLEGQAAKEFIAWLVEKVKEFLER-OH [Compound 130, [Glu34,Lys35,Val36,Lys37]-GLP-1-(7-37)-peptidyl-Glu-Phe-Leu-Glu-Arg]”, the “4 h Cholesterol Efflux Emax” value in data set [1] was determined as 125%. Moreover, the results for the EC50 in data set [2] (setting [5]) and in data set [2] (setting [4]) were 0.034 nM and 0.011 nM, respectively.
With “H-HGEGTFTSDVSSYLEEEAVKEFIAWLVEKVKEKL-NH2 [Compound 111, [Gly8,Glu22,Glu23,Val25,Glu34,Lys35,Val36,Lys37]-GLP-1-(7-37)-peptidyl-Glu-Lys-Leu amide]”, the “4 h Cholesterol Efflux Emax” value in data set [1] was 117%. The compound further yielded an EC50 in data set [2] (setting [4]) of 0.076 nM.
Regarding “HAEGTFTSDLSKQMEEEAVREFIEWLKNKVLEFL-NH2 [Compound 69, [Ala2,Glu21,Lys29,Val30,Leu31,Glu32,Phe33,Leu34]-Exendin-4-(1-34)-peptide amide]”, the EC50 in data set [1] (read-out: 4 h Cholesterol Efflux EC50, ABCA1-mediated efflux (CPT-cAMP induced minus non-induced)) stood at 410 nM; in data set [2] (setting [5]), 0.031 nM; in data set [2] (setting [4]), 0.02 nM.
In data set [3] (plasma), “HAEGTFTSDVSSYLEGEAVKEFIAWLVEKVKEFL-NH2 [Compound 67, [Glu23,Val25,Glu34,Lys35,Val36,Lys37]-GLP-1-(7-37)-peptidyl-Glu-Phe-Leu amide]” gave a C0 of 163 nM, a Vd of 0.056 L/kg and a clearance of 1.17 mL/h/kg. Besides, in data set [3] (setting [6]), the half-life was 33 h.
Take “HAEGTFTSDVSSYLEGQAAKEFIAWLVEKVKEHL-NH2 [Compound 107, [Glu34,Lys35,Val36,Lys37]-GLP-1-(7-37)-peptidyl-Glu-His-Leu amide]”: in data set [2] (setting [5]), the EC50 stood at 0.04 nM. The compound further came in with a half-maximal effective concentration (EC50) in data set [2] (setting [4]) of 0.01 nM. In data set [3] (plasma), this compound showed a C0 of 59.2 nM, a Vd of 0.0615 L/kg and a clearance of 8.04 mL/h/kg. In addition, the half-life in data set [3] (setting [6]) is 5.4 h.
In data set [3] (in vivo), “HGEGTFTSDVSSYLEGEAVKEFIAWLVEKVKEFL-NH2 [Compound 76, [Gly8,Glu23,Val25,Glu34,Lys35,Val36,Lys37]-GLP-1-(7-37)-peptidyl-Glu-Phe-Leu amide]” gave a C0 of 136 nM, a Vd of 0.0636 L/kg, a clearance of 1.06 mL/h/kg and a half-life of 41.7 h.
For “HGEGTFTSDVSSYLEGEAVKEFIAWLVEKVKEHL-NH2 [Compound 78, [Gly8,Glu23,Val25,Glu34,Lys35,Val36,Lys37]-GLP-1-(7-37)-peptidyl-Glu-His-Leu amide]”, in data set [3] (in vivo), the C0 came out at 58.4 nM, the Vd came out at 0.134 L/kg, the clearance is 4.45 mL/h/kg and the half-life is 20.6 h.

In general, EC50 refers to the midpoint of the concentration-response curve. For orientation: Vd means a proportionality between amount in the body and measured concentration, not a real space. A lower Vd goes with little distribution into tissue. One may read the clearance as the rate of elimination divided by the concentration. A low value points to inefficient removal. The half-life is the time in which the quantity being followed falls by half. Read a high half-life as slow decline.

Values taken from US20150344540A1, “NOVEL GLP-1 RECEPTOR AGONISTS WITH CHOLESTEROL EFFLUX ACTIVITY” (NOVO NORDISK A/S, priority 2012, published 2015).
